Data reported in patent publication US20230263822A1, “MODULATION OF FACTOR 11 EXPRESSION” (Ionis Pharmaceuticals, Inc., priority 2008, published 2023).
Strand notation (5' to 3'): a small letter for the sugar, then the base; units joined by * are phosphorothioate-linked, units joined directly phosphodiester-linked; [ ] holds rarer units or linkages, { } end groups; capitals alone tell only the bases. e = 2'-O-(2-methoxyethyl) (MOE); [5mC] = 5-methylcytosine; d = 2'-deoxy (DNA)

System: human Factor 11 mRNA
Test: Antisense inhibition of human Factor 11 in HepG2 cells by microwalk gapmers, lipofectin, 75 nM (Example 3)
Format: cell-based
Description: These gapmers were designed by creating gapmers shifted slightly upstream and downstream (i.e. “microwalk”) of the original gapmers from Table 3. Gapmers were also created with various motifs, e.g. 5-10-5 MOE, 3-14-3 MOE, and 2-13-5 MOE. These gapmers were tested in vitro. Cultured HepG2 cells at a density of 10,000 cells per well were transfected using lipofectin reagent with 75 nM antisense oligonucleotide. After a treatment period of approximately 24 hours, RNA was isolated from the cells and Factor 11 mRNA levels were measured by quantitative real-time PCR. Factor 11 mRNA levels were adjusted according to total RNA content, as measured by RIBOGREEN. Results are presented as percent inhibition of Factor 11, relative to untreated control cells.
The chimeric antisense oligonucleotides in Table 4 were designed as 5-10-5 MOE, 3-14-3 MOE, and 2-13-5 MOE gapmers. The first listed gapmers in Table 4 are the original gapmers (see Table 3) from which the remaining gapmers were designed via microwalk and are designated by an asterisk. The 5-10-5 gapmers are 20 nucleotides in length, wherein the central gap segment is comprised of 10 2′-deoxynucleotides and is flanked on both sides (in the 5′ and 3′ directions) by wings comprising 5 nucleotides each. The 3-14-3 gapmers are 20 nucleotides in length, wherein the central gap segment is comprised of 14 2′-deoxynucleotides and is flanked on both sides (in the 5′ and 3′ directions) by wings comprising 3 nucleotides each. The 2-13-5 gapmers are 20 nucleotides in length, wherein the central gap segment is comprised of 13 2′-deoxynucleotides. The central gap is flanked on the 5′ end with a wing comprising 2 nucleotides and on the 3′ end with a wing comprising 5 nucleotides. For each of the motifs (5-10-5, 3-14-3, and 2-13-5), each nucleotide in the 5′ wing segment and each nucleotide in the 3′ wing segment has a 2′-MOE modification. The internucleoside linkages throughout each gapmer are phosphorothioate (P=S) linkages. All cytidine residues throughout each gapmer are 5-methyl cytidines. “Target start site” indicates the 5′-most nucleotide to which the gapmer is targeted. “Target stop site” indicates the 3′-most nucleotide to which the gapmer is targeted. Each gapmer listed in Table 4 is targeted to SEQ ID NO: 1 (GENBANK Accession No. NM_000128.3).

[1] = HepG2, lipofectin, ~24 h, gapmers targeted to nucleobases 656 to 704 of SEQ ID NO: 1
[2] = HepG2 cells, lipofectin, gapmers targeted to nucleobases 1062 to 1091 of SEQ ID NO: 1
[3] = HepG2 cells, lipofectin, gapmers targeted to nucleobases 1275 to 1318 of SEQ ID NO: 1
[4] = HepG2 cells, lipofectin, gapmers targeted to nucleobases 738 to 762 of SEQ ID NO: 1
[5] = HepG2 cells, lipofectin, gapmers targeted to nucleobases 1018 to 1042 of SEQ ID NO: 1

Substance | % inhibition [1] [%] | further results
416959 (antisense eT*e[5mC]*dT*dA*dG*dG*dT*d[5mC]*d[5mC]*dA*d[5mC]*dA*dT*dA*dA*eA*eT*eG*eT*e[5mC]) [compound 416959] | 25 | –
416918 (antisense eT*eT*e[5mC]*dT*dT*dT*dG*dA*dG*dA*dT*dT*d[5mC]*dT*dT*dT*dG*eG*eG*e[5mC]) [compound 416918] | – | % inhibition [2]: 63%
416891 (antisense e[5mC]*e[5mC]*e[5mC]*dT*dT*d[5mC]*dA*dT*dG*dT*d[5mC]*dT*dA*dG*dG*dT*d[5mC]*e[5mC]*eA*e[5mC]) [compound 416891] | 81 | –
416950 (antisense eA*e[5mC]*dA*dT*dA*dA*dA*dT*dG*dT*d[5mC]*dT*dT*dT*dG*eT*eT*eG*e[5mC]*eA) [compound 416950] | 71 | –
416930 (antisense eG*e[5mC]*eA*dT*dT*dG*dG*dT*dG*d[5mC]*dA*d[5mC]*dA*dG*dT*dT*dT*e[5mC]*eT*eG) [compound 416930] | – | % inhibition [3]: 87%
416920 (antisense eA*e[5mC]*eA*dG*dT*dT*dT*d[5mC]*dT*dG*dG*d[5mC]*dA*dG*dG*d[5mC]*d[5mC]*eT*e[5mC]*eG) [compound 416920] | – | % inhibition [3]: 88%
416885 (antisense eA*eT*eG*dT*d[5mC]*dT*dA*dG*dG*dT*d[5mC]*d[5mC]*dA*d[5mC]*dA*dT*dA*eA*eA*eT) [compound 416885] | 67 | –
417020 (antisense e[5mC]*eT*dG*dG*d[5mC]*dA*dG*d[5mC]*dG*dG*dA*d[5mC]*dG*dG*d[5mC]*eA*eT*eT*eG*eG) [compound 417020] | – | % inhibition [3]: 84%
416947 (antisense eT*eA*dA*dA*dT*dG*dT*d[5mC]*dT*dT*dT*dG*dT*dT*dG*e[5mC]*eA*eA*eG*e[5mC]) [compound 416947] | 62 | –
416961 (antisense eT*eG*dT*d[5mC]*dT*dA*dG*dG*dT*d[5mC]*d[5mC]*dA*d[5mC]*dA*dT*eA*eA*eA*eT*eG) [compound 416961] | 40 | –
416940 (antisense eG*e[5mC]*eA*dG*d[5mC]*dG*dG*dA*d[5mC]*dG*dG*d[5mC]*dA*dT*dT*dG*dG*eT*eG*e[5mC]) [compound 416940] | – | % inhibition [3]: 92%
416995 (antisense eT*eT*d[5mC]*dT*dT*dT*dG*dA*dG*dA*dT*dT*d[5mC]*dT*dT*eT*eG*eG*eG*e[5mC]) [compound 416995] | – | % inhibition [2]: 64%
416971 (antisense eA*eT*dG*d[5mC]*d[5mC]*d[5mC]*dT*dT*d[5mC]*dA*dT*dG*dT*d[5mC]*dT*eA*eG*eG*eT*e[5mC]) [compound 416971] | 83 | –
416935 (antisense eG*eG*eA*d[5mC]*dG*dG*d[5mC]*dA*dT*dT*dG*dG*dT*dG*d[5mC]*dA*d[5mC]*eA*eG*eT) [compound 416935] | – | % inhibition [3]: 92%
416819 (antisense eA*eT*eG*eT*e[5mC]*dT*dA*dG*dG*dT*d[5mC]*d[5mC]*dA*d[5mC]*dA*eT*eA*eA*eA*eT) [compound 416819] | 56 | –
416980 (antisense eG*eT*d[5mC]*dA*dT*d[5mC]*d[5mC]*dG*dT*dG*d[5mC]*dA*dT*d[5mC]*dT*eT*eT*e[5mC]*eT*eT) [compound 416980] | – | % inhibition [4]: 87%
416958 (antisense e[5mC]*eT*dA*dG*dG*dT*d[5mC]*d[5mC]*dA*d[5mC]*dA*dT*dA*dA*dA*eT*eG*eT*e[5mC]*eT) [compound 416958] | 43 | –
416956 (antisense eA*eG*dG*dT*d[5mC]*d[5mC]*dA*d[5mC]*dA*dT*dA*dA*dA*dT*dG*eT*e[5mC]*eT*eT*eT) [compound 416956] | 61 | –
416829 (antisense eT*eT*eT*eA*eT*dG*d[5mC]*d[5mC]*d[5mC]*dT*dT*d[5mC]*dA*dT*dG*eT*e[5mC]*eT*eA*eG) [compound 416829] | 72 | –
416822 (antisense e[5mC]*eT*eT*e[5mC]*eA*dT*dG*dT*d[5mC]*dT*dA*dG*dG*dT*d[5mC]*e[5mC]*eA*e[5mC]*eA*eT) [compound 416822] | 76 | –
416836 (antisense eA*eA*e[5mC]*e[5mC]*eG*dG*dG*dA*dT*dG*dA*dT*dG*dA*dG*eT*eG*e[5mC]*eA*eG) [compound 416836] | – | % inhibition [5]: 89%

Substance | % inhibition [1] [%] | further results
416970 (antisense eT*eG*d[5mC]*d[5mC]*d[5mC]*dT*dT*d[5mC]*dA*dT*dG*dT*d[5mC]*dT*dA*eG*eG*eT*e[5mC]*e[5mC]) [compound 416970] | 88 | –
416813 (antisense eG*eT*e[5mC]*e[5mC]*eA*d[5mC]*dA*dT*dA*dA*dA*dT*dG*dT*d[5mC]*eT*eT*eT*eG*eT) [compound 416813] | 70 | –
416910 (antisense eG*eA*eT*dT*d[5mC]*dT*dT*dT*dG*dG*dG*d[5mC]*d[5mC]*dA*dT*dT*d[5mC]*e[5mC]*eT*eG) [compound 416910] | – | % inhibition [2]: 90%
416847 (antisense eT*eT*eT*e[5mC]*eT*dT*dT*dG*dA*dG*dA*dT*dT*d[5mC]*dT*eT*eT*eG*eG*eG) [compound 416847] | – | % inhibition [2]: 50%
416981 (antisense e[5mC]*e[5mC]*dG*dG*dG*dA*dT*dG*dA*dT*dG*dA*dG*dT*dG*e[5mC]*eA*eG*eA*eT) [compound 416981] | – | % inhibition [5]: 87%
417019 (antisense eT*eG*dG*d[5mC]*dA*dG*d[5mC]*dG*dG*dA*d[5mC]*dG*dG*d[5mC]*dA*eT*eT*eG*eG*eT) [compound 417019] | – | % inhibition [3]: 84%
416966 (antisense e[5mC]*eT*dT*d[5mC]*dA*dT*dG*dT*d[5mC]*dT*dA*dG*dG*dT*d[5mC]*e[5mC]*eA*e[5mC]*eA*eT) [compound 416966] | 64 | –
416978 (antisense e[5mC]*eA*dT*d[5mC]*d[5mC]*dG*dT*dG*d[5mC]*dA*dT*d[5mC]*dT*dT*dT*e[5mC]*eT*eT*eG*eG) [compound 416978] | – | % inhibition [4]: 76%
417013 (antisense e[5mC]*eG*dG*dA*d[5mC]*dG*dG*d[5mC]*dA*dT*dT*dG*dG*dT*dG*e[5mC]*eA*e[5mC]*eA*eG) [compound 417013] | – | % inhibition [3]: 86%
416883 (antisense eG*eT*e[5mC]*dT*dA*dG*dG*dT*d[5mC]*d[5mC]*dA*d[5mC]*dA*dT*dA*dA*dA*eT*eG*eT) [compound 416883] | 82 | –
416814 (antisense eA*eG*eG*eT*e[5mC]*d[5mC]*dA*d[5mC]*dA*dT*dA*dA*dA*dT*dG*eT*e[5mC]*eT*eT*eT) [compound 416814] | 83 | –
416901 (antisense e[5mC]*eA*eT*d[5mC]*d[5mC]*dG*dT*dG*d[5mC]*dA*dT*d[5mC]*dT*dT*dT*d[5mC]*dT*eT*eG*eG) [compound 416901] | – | % inhibition [4]: 65%
416952 (antisense e[5mC]*e[5mC]*dA*d[5mC]*dA*dT*dA*dA*dA*dT*dG*dT*d[5mC]*dT*dT*eT*eG*eT*eT*eG) [compound 416952] | 51 | –
416937 (antisense eG*e[5mC]*eG*dG*dA*d[5mC]*dG*dG*d[5mC]*dA*dT*dT*dG*dG*dT*dG*d[5mC]*eA*e[5mC]*eA) [compound 416937] | – | % inhibition [3]: 93%
416934 (antisense eG*eA*e[5mC]*dG*dG*d[5mC]*dA*dT*dT*dG*dG*dT*dG*d[5mC]*dA*d[5mC]*dA*eG*eT*eT) [compound 416934] | – | % inhibition [3]: 90%
416817 (antisense eT*e[5mC]*eT*eA*eG*dG*dT*d[5mC]*d[5mC]*dA*d[5mC]*dA*dT*dA*dA*eA*eT*eG*eT*e[5mC]) [compound 416817] | 74 | –
416880 (antisense eT*eA*eG*dG*dT*d[5mC]*d[5mC]*dA*d[5mC]*dA*dT*dA*dA*dA*dT*dG*dT*e[5mC]*eT*eT) [compound 416880] | 66 | –
416921 (antisense e[5mC]*eA*e[5mC]*dA*dG*dT*dT*dT*d[5mC]*dT*dG*dG*d[5mC]*dA*dG*dG*d[5mC]*e[5mC]*eT*e[5mC]) [compound 416921] | – | % inhibition [3]: 88%
416832 (antisense e[5mC]*eA*eT*e[5mC]*e[5mC]*dG*dT*dG*d[5mC]*dA*dT*d[5mC]*dT*dT*dT*e[5mC]*eT*eT*eG*eG) [compound 416832] | – | % inhibition [4]: 79%
416809 (antisense e[5mC]*eA*eT*eA*eA*dA*dT*dG*dT*d[5mC]*dT*dT*dT*dG*dT*eT*eG*e[5mC]*eA*eA) [compound 416809] | 86 | –
